Source: ChEMBL document CHEMBL4043147, “9,19-Cycloartenol glycoside G3 from Cimicifuga simplex regulates immune responses by modulating Th17/Treg ratio” (Bioorg Med Chem, 2017)
Blank lines part the entries; values can stand above or below the compound they belong to. Active and inactive are the calls of the source. The calls are words filed in the database; no cut-off is given here.

Columns and labels:
[1] = Inhibition of C57BL/6 mouse CD4-positive T cell differentiation; type: functional, cell-based; conditions: C57BL/6, CD4-positive T cell
[2] = Inhibition of C57BL/6 mouse CD4-positive T cell differentiation at 25 uM relative to control; type: functional; conditions: C57BL/6, CD4-positive T cell
[3] = Inhibition of C57BL/6 mouse CD4-positive T cell differentiation at 12.5 uM relative to control; type: functional; conditions: C57BL/6, CD4-positive T cell
[4] = Inhibition of C57BL/6 mouse CD4-positive T cell differentiation at 50 uM relative to control; type: functional; conditions: C57BL/6, CD4-positive T cell
[5] = Inhibition of C57BL/6 mouse CD4-positive T cell differentiation at 6.25 uM relative to control; type: functional; conditions: C57BL/6, CD4-positive T cell
Treg cell [6] = assay: Reduction in IL-10 production in C57BL/6 mouse Treg cells at 10 uM by ELISA; type: functional, cell-based
Th17 [7] = assay: Decrease in IL-17A mRNA level in C57BL/6 mouse Th17 cells 0.1 to 10 uM by real-time PCR analysis; type: functional, cell-based
Mus musculus [8] = assay: (§1) Anti-inflammatory activity in IL-23 induced mouse psoriasis-like skin inflammation model assessed as reduction in CXCL1 mRNA levels at 2 to 10 uM applied topically starting 1 day prior to IL-23 induction and continuing every other day for 14 days measured after 24 hrs post last dose by real-time PCR analysis; type: functional
Mus musculus [9] = assay: as §1, with “TNF-alpha” for “CXCL1”; type: functional
Treg cell [10] = assay: Increase in IL-10 mRNA level in C57BL/6 mouse Treg cells by real-time PCR analysis; type: functional, cell-based
Mus musculus [11] = assay: as §1, with “CCL17” for “CXCL1”; type: functional
Mus musculus [12] = assay: as §1, with “IFN-gamma” for “CXCL1”; type: functional
Mus musculus [13] = species: Mus musculus; assay: Inhibition of […]/TYK2 in C57BL/6 mouse CD4-positive T cell assessed as reduction in IL-12-induced STAT1 phosphorylation at 1 to 10 uM pretreated for 1 hr followed by IL-12 addition after 30 mins by Western blot analysis
Th17 [14] = assay: Reduction in IL-17A production in C57BL/6 mouse Th17 cells at 10 uM by ELISA; type: functional, cell-based
CD4-positive T cell [15] = assay: Inhibition of C57BL/6 mouse CD4-positive T cell differentiation assessed as decrease in FoxP3 mRNA level 0.1 to 10 uM by real-time PCR analysis; type: functional, cell-based
Mus musculus [16] = assay: as §1, with “CCR6” for “CXCL1”; type: functional
CD4-positive T cell [17] = assay: Inhibition of C57BL/6 mouse CD4-positive T cell differentiation assessed as decrease in RORgammat mRNA level 0.1 to 10 uM by real-time PCR analysis; type: functional, cell-based
Treg cell [18] = assay: Increase in IL-10 production in C57BL/6 mouse Treg cells by ELISA; type: functional, cell-based
CD4-positive T cell [19] = assay: Reduction in RORgammat/IL-17 expression in human PBMC derived allogeneic CD4-positive T cells co-cultured with […] CD14 positive monocyte derived dendritic cells at 10 uM by flow cytometric analysis; type: functional, cell-based
Mus musculus [20] = assay: as §1, with “dermal inflammatory infiltrates” for “CXCL1 mRNA levels”, “hematoxylin and eosin staining based assay” for “real-time PCR analysis”; type: functional
Mus musculus [21] = assay: as §1, with “COX2” for “CXCL1”; type: functional
Mus musculus [22] = assay: as §1, with “IL-1beta” for “CXCL1”; type: functional
CD4-positive T cell [23] = assay: Reduction in FoxP3/IL-10 expression in human PBMC derived allogeneic CD4-positive T cells co-cultured with […] CD14 positive monocyte derived dendritic cells at 10 uM by flow cytometric analysis; type: functional, cell-based
Th1 = assay: Reduction in IFN-gamma production in C57BL/6 mouse Th1 cells at 10 uM by ELISA; type: functional, cell-based
Splenocyte = assay: Cytotoxicity against mouse splenocytes after 48 hrs by MTT assay; type: cell-based
CD4-positive T cell [24] = assay: Inhibition of C57BL/6 mouse CD4-positive T cell differentiation assessed as decrease in GATA-3 mRNA level 0.1 to 10 uM by real-time PCR analysis; type: functional, cell-based
Mus musculus [25] = assay: as §1, with “IL-1alpha” for “CXCL1”; type: functional
Mus musculus [26] = species: Mus musculus; assay: Inhibition of […]/TYK2 in C57BL/6 mouse CD4-positive T cell assessed as reduction in IL-12-induced STAT4 phosphorylation at 1 to 10 uM pretreated for 1 hr followed by IL-12 addition after 30 mins by Western blot analysis
Mus musculus [27] = assay: as §1, with “CCL20” for “CXCL1”; type: functional
CD4-positive T cell [28] = assay: Reduction in ratio of RORgammat/IL-17 expression to FoxP3/IL-10 expression in human PBMC derived allogeneic CD4-positive T cells co-cultured with […] CD14 positive monocyte derived dendritic cells at 10 uM by flow cytometric analysis; type: functional, cell-based
Mus musculus [29] = assay: as §1, with “IL-10” for “CXCL1”; type: functional
CD4-positive T cell [30] = assay: Inhibition of C57BL/6 mouse CD4-positive T cell differentiation assessed as decrease in T-bet mRNA level 0.1 to 10 uM by real-time PCR analysis; type: functional, cell-based
Mus musculus [31] = assay: as §1, with “IL-22” for “CXCL1”; type: functional
Mus musculus [32] = assay: as §1, with “CCL27” for “CXCL1”; type: functional
Mus musculus [33] = assay: as §1, with “IL-4” for “CXCL1”; type: functional
[34] = molecular target: Tyrosine-protein kinase JAK1/JAK3 (Mus musculus) (UniProt P52332+Q62137); assay: Inhibition of JAK1/JAK3 in C57BL/6 mouse CD4-positive T cell assessed as reduction in IL-4-induced STAT6 phosphorylation at 1 to 10 uM pretreated for 1 hr followed by IL-4 addition after 15 mins by Western blot analysis
Mus musculus [35] = assay: as §1, with “IL-6” for “CXCL1”; type: functional
Mus musculus [36] = assay: as §1, with “IL-17A” for “CXCL1”; type: functional
[37] = molecular target: T1, Tyrosine-protein kinase JAK1/JAK2 (Mus musculus) (UniProt P52332+Q62120); assay: Inhibition of JAK1/JAK2 in C57BL/6 mouse CD4-positive T cell assessed as reduction in IFNgamma-induced STAT3 phosphorylation at 1 to 10 uM pretreated for 1 hr followed by IFNgamma addition after 15 mins by Western blot analysis
Mus musculus [38] = assay: as §1, with “epidermal hyperplasia by measuring acanthosis” for “CXCL1 mRNA levels”, “hematoxylin and eosin staining based assay” for “real-time PCR analysis”; type: functional
[39] = molecular target: T1, Tyrosine-protein kinase JAK1/JAK2 (Mus musculus); assay: Inhibition of JAK1/JAK2 in C57BL/6 mouse CD4-positive T cell assessed as reduction in IFNgamma-induced STAT1 phosphorylation at 1 to 10 uM pretreated for 1 hr followed by IFNgamma addition after 15 mins by Western blot analysis

T1 sequence (P52332 whole entry, looked up): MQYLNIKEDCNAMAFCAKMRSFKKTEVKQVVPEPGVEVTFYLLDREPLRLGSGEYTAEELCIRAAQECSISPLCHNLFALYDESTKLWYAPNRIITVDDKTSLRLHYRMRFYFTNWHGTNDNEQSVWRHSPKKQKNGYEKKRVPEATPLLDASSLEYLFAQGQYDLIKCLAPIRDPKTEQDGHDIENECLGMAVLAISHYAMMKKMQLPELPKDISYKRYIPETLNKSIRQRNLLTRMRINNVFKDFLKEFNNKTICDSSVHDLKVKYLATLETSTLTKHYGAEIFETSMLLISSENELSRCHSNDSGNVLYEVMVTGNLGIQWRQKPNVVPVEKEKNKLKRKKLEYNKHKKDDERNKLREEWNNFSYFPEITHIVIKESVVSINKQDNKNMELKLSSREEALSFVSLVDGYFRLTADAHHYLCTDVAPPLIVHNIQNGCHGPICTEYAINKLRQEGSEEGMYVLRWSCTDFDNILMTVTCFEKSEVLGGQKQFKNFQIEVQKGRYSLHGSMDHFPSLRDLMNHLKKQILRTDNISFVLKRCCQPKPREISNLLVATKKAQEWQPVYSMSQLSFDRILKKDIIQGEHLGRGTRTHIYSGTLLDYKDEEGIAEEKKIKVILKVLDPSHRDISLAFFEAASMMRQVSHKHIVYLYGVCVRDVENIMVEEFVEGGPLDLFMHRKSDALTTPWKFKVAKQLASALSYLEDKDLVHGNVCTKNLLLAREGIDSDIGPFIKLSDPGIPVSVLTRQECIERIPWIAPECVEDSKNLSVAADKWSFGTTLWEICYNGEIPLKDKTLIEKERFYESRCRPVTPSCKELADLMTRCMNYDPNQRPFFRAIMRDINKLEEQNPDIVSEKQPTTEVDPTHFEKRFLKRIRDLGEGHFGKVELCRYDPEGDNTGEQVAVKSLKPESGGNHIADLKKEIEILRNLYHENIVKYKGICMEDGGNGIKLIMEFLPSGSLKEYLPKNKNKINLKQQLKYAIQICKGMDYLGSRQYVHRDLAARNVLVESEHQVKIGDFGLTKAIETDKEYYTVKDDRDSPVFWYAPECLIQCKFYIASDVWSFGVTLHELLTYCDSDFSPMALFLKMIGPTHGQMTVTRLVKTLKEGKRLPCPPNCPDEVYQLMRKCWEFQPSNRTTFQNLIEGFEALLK
T1 sequence (Q62120 whole entry, looked up): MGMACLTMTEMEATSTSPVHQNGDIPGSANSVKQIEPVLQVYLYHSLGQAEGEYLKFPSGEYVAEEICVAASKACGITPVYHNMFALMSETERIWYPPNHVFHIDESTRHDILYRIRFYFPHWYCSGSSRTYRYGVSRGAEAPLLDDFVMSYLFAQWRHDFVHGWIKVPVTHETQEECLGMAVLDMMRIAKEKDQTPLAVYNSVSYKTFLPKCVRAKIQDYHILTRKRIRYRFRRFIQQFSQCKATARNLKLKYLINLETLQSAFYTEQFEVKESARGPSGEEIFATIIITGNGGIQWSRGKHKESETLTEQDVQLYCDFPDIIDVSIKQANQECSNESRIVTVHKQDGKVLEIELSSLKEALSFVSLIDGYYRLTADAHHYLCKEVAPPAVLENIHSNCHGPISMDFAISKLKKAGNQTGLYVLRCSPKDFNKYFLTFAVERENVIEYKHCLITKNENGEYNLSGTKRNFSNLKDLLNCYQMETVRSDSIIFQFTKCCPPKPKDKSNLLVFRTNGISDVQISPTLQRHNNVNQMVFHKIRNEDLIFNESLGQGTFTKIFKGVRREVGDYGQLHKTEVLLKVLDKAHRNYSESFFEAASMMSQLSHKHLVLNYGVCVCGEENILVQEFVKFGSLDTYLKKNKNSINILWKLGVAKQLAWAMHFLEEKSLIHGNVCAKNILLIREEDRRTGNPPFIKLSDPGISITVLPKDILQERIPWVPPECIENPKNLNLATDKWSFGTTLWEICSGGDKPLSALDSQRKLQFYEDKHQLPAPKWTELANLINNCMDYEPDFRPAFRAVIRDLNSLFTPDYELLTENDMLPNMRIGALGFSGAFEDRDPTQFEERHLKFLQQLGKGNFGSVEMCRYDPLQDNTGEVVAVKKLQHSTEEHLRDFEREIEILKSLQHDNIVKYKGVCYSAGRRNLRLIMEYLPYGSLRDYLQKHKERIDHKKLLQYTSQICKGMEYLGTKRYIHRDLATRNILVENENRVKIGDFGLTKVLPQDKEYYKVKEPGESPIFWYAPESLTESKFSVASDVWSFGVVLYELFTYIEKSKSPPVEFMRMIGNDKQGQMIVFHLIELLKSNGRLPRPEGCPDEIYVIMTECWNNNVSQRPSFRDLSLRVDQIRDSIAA
Chain of Tyrosine-protein kinase JAK1/JAK3 (Mus musculus) (P52332 whole entry, looked up): as the sequence (P52332 whole entry, looked up) above
Chain of Tyrosine-protein kinase JAK1/JAK3 (Mus musculus) (Q62137 whole entry, looked up): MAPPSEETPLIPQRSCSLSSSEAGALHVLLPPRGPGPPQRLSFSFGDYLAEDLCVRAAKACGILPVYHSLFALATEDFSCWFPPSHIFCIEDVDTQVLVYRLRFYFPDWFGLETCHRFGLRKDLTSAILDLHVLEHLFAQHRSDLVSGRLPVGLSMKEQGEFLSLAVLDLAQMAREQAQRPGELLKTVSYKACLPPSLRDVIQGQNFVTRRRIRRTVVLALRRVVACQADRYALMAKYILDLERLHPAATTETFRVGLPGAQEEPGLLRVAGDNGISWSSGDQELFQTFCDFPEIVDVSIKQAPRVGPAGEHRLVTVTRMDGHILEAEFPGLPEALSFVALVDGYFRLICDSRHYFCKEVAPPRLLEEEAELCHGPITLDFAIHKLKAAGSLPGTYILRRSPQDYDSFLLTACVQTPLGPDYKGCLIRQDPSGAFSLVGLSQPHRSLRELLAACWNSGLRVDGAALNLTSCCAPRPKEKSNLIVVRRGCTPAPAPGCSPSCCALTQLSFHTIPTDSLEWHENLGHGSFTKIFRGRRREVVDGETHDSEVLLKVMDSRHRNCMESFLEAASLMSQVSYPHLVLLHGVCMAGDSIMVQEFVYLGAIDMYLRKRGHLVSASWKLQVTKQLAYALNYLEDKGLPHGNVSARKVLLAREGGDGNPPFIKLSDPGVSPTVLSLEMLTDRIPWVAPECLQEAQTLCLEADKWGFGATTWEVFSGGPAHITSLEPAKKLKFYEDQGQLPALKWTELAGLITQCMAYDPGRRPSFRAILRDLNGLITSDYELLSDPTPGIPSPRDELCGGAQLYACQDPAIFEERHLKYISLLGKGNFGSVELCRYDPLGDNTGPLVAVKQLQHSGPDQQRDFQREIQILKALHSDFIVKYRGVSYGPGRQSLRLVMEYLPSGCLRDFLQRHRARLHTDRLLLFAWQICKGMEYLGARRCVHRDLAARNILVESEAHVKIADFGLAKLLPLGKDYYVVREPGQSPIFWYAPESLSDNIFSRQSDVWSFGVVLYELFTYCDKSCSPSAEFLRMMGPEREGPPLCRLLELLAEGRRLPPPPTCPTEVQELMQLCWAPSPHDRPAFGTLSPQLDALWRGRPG

Compound: CC(=O)O[C@H]([C@H]1C[C@@H](C)C2=C(O1)[C@@H](O)[C@@]1(C)[C@@H]3CC[C@H]4C(C)(C)[C@@H](O[C@@H]5O[C@H](CO)[C@H](O)[C@H](O)[C@H]5O)CC[C@@]45C[C@@]35CC[C@]21C)C(C)(C)O
IC50 [1]: 14.6 µM
inhibition at 25 µM [2]: 68.3%
inhibition at 12.5 µM [3]: 21.3%
inhibition at 50 µM [4]: 96.8%
inhibition at 6.25 µM [5]: 10.2%

Compound: C[C@@H]1C[C@H]([C@@H](O)C(C)(C)O)O[C@]2(O)[C@@H](O)[C@@]3(C)C4=CC[C@H]5C(C)(C)[C@@H](O[C@@H]6O[C@H](CO)[C@H](O)[C@H](O)[C@H]6O)CC[C@@]56C[C@@]46CC[C@]3(C)[C@@H]12
IC50 [1]: 18.3 µM
inhibition at 25 µM [2]: 74.1%
inhibition at 12.5 µM [3]: 51.5%
inhibition at 50 µM [4]: 99.6%
inhibition at 6.25 µM [5]: 10.3%

Compound: CC(=O)O[C@@H]1C[C@@]23C[C@@]24CC[C@H](O[C@@H]2OC[C@@H](O)[C@H](O)[C@H]2O)C(C)(C)[C@@H]4CC=C3[C@]2(C)C[C@]3(O)O[C@H](C(=O)[C@@H]4OC4(C)C)[C@@H](C)[C@@H]3[C@@]12C
IC50 [1]: 17.6 µM
inhibition at 25 µM [2]: 82.6%
inhibition at 12.5 µM [3]: 24.6%
inhibition at 50 µM [4]: 99.1%
inhibition at 6.25 µM [5]: 5.3%

More lines, main results first:

IC50 [1]: 12.6 µM
Compound: CC(=O)O[C@H]([C@H]1C[C@@H](C)C2=C(O1)[C@@H](O)[C@@]1(C)C3=CC[C@H]4C(C)(C)[C@@H](O[C@@H]5O[C@H](CO)[C@H](O)[C@H](O)[C@H]5O)CC[C@@]45C[C@@]35CC[C@]21C)C(C)(C)O
inhibition at 25 µM [2]: 92.1%
inhibition at 12.5 µM [3]: 54.3%
inhibition at 50 µM [4]: 96.6%
inhibition at 6.25 µM [5]: 21.6%

IC50 [1]: 14.3 µM
Compound: CC(=O)O[C@@H]1C[C@@]23C[C@@]24CC[C@H](O[C@@H]2O[C@H](CO)[C@H](O)[C@H](O)[C@H]2O)C(C)(C)[C@@H]4CC=C3[C@]2(C)C[C@@]3(O)O[C@H](C(=O)[C@H]4OC4(C)C)[C@@H](C)[C@@H]3[C@@]12C
inhibition at 25 µM [2]: 68.3%
inhibition at 12.5 µM [3]: 52.4%
inhibition at 50 µM [4]: 98.6%
inhibition at 6.25 µM [5]: 8.9%

IC50 [1]: 8.69 µM
inhibition (Mus musculus [13]): Active
inhibition (Mus musculus [26]): Active
inhibition [34]: Active
inhibition [37]: Active
inhibition [39]: Active
Compound: CC(=O)O[C@@H]1C[C@@]23C[C@@]24CC[C@H](O[C@@H]2O[C@H](CO)[C@H](O)[C@H](O)[C@H]2O)C(C)(C)[C@@H]4CC[C@H]3[C@]2(C)C[C@]3(O)O[C@H](C(=O)[C@@H]4OC4(C)C)[C@@H](C)[C@@H]3[C@@]12C
Activity (Treg cell [6]): Active
Activity (Th17 [7]): Active
Activity (Mus musculus [8]): Active
Activity (Mus musculus [9]): Active
Activity (Treg cell [10]): Dose-dependent effect
Activity (Mus musculus [11]): Active
Activity (Mus musculus [12]): Active
Activity (Th17 [14]): Active
inhibition (CD4-positive T cell [15]): inactive
Activity (Mus musculus [16]): Active
inhibition (CD4-positive T cell [17]): Active
Activity (Treg cell [18]): Dose-dependent effect
Activity (CD4-positive T cell [19]): Active
Activity (Mus musculus [20]): Active
Activity (Mus musculus [21]): Active
Activity (Mus musculus [22]): Active
Activity (CD4-positive T cell [23]): Active
Activity (Th1): Active
CC50 (Splenocyte): 88.8 µM
inhibition (CD4-positive T cell [24]): Active
Activity (Mus musculus [25]): Active
inhibition at 25 µM [2]: 93.6%
Activity (Mus musculus [27]): Active
Activity (CD4-positive T cell [28]): Active
Activity (Mus musculus [29]): inactive
inhibition (CD4-positive T cell [30]): Active
Activity (Mus musculus [31]): Active
Activity (Mus musculus [32]): Active
Activity (Mus musculus [33]): Active
Activity (Mus musculus [35]): Active
inhibition at 12.5 µM [3]: 59.6%
inhibition at 50 µM [4]: 98.3%
Activity (Mus musculus [36]): Active
Activity (Mus musculus [38]): Active
inhibition at 6.25 µM [5]: 29.6%
